Like-named read-outs stand apart in the source and are kept apart here.
Assays:
PLK4 = target: T1, PLK4 (Homo sapiens, UniProt O00444); assay: KdELECT binding assay
T1 construct: purchased Eurofins DiscoverX

NEK6, NEK7 = assay: KiNativ, OCI cells live cell; assay type: cell-based, human; settings: labeling site Lys2, peptide DIKPANVFITATGVVK
CSK = CSK (Homo sapiens, UniProt P41240); assay: KiNativ, OCI cells live cell; assay type: cell-based
MAST3 = MAST3 (Homo sapiens, UniProt O60307); assay: KiNativ, OCI cells live cell; assay type: cell-based; settings: 2 h, labeling site Lys2, peptide […]
MAST3, sequence (O60307 whole entry): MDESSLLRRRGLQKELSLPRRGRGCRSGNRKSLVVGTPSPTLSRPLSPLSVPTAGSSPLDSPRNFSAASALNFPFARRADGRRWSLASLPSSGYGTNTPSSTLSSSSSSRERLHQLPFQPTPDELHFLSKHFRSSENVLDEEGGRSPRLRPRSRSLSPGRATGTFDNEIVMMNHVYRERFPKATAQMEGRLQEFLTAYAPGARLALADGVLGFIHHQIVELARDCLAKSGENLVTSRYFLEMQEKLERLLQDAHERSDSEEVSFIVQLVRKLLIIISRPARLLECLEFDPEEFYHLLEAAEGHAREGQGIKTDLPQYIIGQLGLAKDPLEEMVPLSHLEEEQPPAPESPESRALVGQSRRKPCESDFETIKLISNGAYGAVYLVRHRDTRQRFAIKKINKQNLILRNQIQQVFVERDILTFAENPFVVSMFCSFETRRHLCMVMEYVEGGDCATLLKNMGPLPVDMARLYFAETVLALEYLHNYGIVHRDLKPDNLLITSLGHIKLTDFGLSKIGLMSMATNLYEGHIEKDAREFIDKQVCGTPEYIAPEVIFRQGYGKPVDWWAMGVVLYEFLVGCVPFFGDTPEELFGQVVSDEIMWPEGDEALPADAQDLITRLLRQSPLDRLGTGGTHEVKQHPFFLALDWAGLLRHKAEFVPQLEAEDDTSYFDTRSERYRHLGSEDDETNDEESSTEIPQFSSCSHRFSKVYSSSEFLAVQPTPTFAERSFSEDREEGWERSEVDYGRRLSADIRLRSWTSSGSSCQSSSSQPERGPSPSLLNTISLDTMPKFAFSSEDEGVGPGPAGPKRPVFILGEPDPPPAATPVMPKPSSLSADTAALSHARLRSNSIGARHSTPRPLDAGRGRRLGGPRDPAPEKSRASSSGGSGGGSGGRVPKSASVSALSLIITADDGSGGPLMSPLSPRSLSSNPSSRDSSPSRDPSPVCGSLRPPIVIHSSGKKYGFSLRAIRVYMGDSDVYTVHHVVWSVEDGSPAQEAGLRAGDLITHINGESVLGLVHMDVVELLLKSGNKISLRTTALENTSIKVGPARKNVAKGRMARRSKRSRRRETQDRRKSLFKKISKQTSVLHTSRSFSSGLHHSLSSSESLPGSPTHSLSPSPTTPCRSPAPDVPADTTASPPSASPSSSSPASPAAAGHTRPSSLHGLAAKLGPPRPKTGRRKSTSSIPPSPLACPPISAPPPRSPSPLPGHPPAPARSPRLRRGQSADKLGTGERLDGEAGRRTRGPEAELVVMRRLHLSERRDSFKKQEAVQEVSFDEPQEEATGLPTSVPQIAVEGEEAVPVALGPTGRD

KSR1, KSR2 = assay: KiNativ, OCI cells live cell; assay type: cell-based, human; settings: labeling site Activation Loop, peptide SKNVFYDNGK
GCK [1] = target: T2, GCK (Homo sapiens, UniProt Q12851); assay: KdELECT binding assay; set-up: purchased Eurofins DiscoverX
T2 sequence (Q12851 1-820): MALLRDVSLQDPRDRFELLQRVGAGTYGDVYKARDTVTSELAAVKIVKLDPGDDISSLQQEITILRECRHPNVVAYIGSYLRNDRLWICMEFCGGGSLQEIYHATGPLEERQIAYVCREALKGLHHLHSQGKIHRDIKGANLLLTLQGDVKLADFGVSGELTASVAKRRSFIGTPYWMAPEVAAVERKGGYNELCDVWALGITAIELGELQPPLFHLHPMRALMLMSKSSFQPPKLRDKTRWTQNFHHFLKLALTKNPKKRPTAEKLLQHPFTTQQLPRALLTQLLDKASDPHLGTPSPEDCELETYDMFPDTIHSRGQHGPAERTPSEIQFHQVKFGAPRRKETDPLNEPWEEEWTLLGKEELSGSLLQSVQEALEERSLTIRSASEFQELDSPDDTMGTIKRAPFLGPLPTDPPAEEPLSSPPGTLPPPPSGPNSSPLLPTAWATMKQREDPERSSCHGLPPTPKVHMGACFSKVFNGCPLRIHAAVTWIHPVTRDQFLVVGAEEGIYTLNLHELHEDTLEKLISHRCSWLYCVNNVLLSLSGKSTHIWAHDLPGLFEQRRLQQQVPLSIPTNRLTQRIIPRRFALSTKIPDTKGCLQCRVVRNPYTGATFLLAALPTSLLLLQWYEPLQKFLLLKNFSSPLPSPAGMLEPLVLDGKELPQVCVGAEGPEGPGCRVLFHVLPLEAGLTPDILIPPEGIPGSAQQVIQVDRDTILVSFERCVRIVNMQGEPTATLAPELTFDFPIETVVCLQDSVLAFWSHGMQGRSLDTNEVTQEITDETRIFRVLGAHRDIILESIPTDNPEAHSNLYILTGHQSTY

RIPK3 = RIPK3 (Homo sapiens, UniProt Q9Y572); assay: KiNativ, OCI cells live cell; assay type: cell-based; settings: 2 h, labeling site Lys2, peptide […]
MAP3K15, MAP3K5, MAP3K6 = assay: KiNativ, OCI cells live cell; assay type: cell-based, human; settings: labeling site Lys1, peptide IAIKEIPER
ACK1 = ACK1 (Homo sapiens, UniProt Q07912); assay: KiNativ in situ kinase profiling, OCI-AML3 cells; assay type: cell-based
ACK1, sequence (Q07912 whole entry): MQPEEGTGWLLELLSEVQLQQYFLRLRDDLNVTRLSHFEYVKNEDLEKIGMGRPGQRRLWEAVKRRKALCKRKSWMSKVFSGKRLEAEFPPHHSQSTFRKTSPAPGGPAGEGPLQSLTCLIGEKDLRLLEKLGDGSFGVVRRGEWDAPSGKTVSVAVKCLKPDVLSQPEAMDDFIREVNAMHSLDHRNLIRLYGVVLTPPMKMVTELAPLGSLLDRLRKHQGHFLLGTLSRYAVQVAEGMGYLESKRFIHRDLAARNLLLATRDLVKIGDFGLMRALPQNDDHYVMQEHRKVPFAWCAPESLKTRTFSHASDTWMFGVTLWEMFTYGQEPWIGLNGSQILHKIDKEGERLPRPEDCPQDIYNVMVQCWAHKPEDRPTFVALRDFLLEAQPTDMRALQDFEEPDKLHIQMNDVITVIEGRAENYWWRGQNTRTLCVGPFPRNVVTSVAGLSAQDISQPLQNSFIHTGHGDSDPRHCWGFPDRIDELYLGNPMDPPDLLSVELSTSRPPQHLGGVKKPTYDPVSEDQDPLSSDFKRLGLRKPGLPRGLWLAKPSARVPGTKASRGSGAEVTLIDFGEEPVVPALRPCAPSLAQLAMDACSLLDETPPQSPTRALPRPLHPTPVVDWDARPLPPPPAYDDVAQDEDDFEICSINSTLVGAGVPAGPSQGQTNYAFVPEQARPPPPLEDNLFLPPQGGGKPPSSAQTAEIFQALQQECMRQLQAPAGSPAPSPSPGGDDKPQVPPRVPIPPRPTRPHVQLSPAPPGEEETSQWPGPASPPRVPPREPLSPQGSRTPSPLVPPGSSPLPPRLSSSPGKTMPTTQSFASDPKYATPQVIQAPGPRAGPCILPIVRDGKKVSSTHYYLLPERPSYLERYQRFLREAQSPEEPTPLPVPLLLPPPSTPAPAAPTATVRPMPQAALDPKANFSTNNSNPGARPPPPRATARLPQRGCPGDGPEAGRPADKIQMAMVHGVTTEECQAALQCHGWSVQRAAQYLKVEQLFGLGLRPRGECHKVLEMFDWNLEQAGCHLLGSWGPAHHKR
Experimental: (§1) Samples were analyzed by KiNativ in situ kinase profiling by ActivX Biosciences.

GCK [2] = target: T2, GCK; assay: KiNativ in situ kinase profiling, OCI-AML3 cells; assay type: cell-based
Experimental: as §1

MAP3K3 = MAP3K3 (Homo sapiens, UniProt Q99759); assay: KiNativ, OCI cells live cell; assay type: cell-based; settings: 2 h, labeling site Lys1, peptide […]
MAP3K3, sequence (Q99759 whole entry): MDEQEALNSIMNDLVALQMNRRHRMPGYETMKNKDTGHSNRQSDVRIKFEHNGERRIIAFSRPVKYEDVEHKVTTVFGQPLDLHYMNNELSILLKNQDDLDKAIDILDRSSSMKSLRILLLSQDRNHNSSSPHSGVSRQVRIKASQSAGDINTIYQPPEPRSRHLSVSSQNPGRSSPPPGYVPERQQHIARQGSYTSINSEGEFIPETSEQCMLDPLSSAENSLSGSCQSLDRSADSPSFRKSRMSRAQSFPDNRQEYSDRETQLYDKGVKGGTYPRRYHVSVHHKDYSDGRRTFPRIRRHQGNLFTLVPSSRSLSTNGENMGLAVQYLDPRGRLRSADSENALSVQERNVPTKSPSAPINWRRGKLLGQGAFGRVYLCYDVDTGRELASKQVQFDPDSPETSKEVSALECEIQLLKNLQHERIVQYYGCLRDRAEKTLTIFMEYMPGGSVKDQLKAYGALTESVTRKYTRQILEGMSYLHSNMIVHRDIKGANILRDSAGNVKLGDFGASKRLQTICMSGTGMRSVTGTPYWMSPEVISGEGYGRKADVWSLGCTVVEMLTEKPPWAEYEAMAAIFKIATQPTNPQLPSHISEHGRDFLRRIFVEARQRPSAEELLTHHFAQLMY

GCK [3] = target: T2, GCK; assay: Kinase assay by Reaction Biology; assay type: biochemical; set-up: purchased Eurofins DiscoverX
TYK2 = target: T3, TYK2 (Homo sapiens, UniProt P29597); assay: KdELECT binding assay
T3 construct: purchased Eurofins DiscoverX
T3 sequence (P29597 whole entry): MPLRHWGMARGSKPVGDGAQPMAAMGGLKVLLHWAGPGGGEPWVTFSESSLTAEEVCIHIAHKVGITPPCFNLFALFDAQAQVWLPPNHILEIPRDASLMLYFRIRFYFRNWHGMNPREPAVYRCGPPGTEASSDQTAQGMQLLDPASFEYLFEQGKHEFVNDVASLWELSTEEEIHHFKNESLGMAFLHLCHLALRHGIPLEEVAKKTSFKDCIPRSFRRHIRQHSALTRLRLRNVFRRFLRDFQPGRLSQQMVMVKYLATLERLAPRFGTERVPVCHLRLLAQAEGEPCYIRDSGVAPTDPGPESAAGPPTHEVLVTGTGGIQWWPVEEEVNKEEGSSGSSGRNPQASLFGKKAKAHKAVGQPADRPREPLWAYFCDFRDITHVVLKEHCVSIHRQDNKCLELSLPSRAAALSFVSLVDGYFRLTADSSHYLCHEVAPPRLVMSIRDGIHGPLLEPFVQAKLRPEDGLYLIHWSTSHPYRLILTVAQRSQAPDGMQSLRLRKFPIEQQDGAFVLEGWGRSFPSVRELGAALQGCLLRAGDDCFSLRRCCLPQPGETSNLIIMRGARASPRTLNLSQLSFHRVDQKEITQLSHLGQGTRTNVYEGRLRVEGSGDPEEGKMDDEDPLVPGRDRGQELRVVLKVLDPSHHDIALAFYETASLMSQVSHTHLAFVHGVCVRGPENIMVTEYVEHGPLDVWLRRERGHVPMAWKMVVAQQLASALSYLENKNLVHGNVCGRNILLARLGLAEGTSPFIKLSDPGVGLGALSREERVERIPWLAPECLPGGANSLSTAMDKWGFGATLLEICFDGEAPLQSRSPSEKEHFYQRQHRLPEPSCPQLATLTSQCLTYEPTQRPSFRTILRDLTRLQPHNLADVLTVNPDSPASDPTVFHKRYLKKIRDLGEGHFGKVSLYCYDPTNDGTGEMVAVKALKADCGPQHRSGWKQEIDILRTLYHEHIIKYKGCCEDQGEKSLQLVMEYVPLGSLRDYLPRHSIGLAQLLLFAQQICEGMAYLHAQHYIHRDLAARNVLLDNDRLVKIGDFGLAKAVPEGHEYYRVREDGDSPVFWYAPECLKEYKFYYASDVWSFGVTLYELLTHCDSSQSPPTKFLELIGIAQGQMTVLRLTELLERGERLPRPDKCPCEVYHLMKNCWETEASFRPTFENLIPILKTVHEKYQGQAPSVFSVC

ALK = target: T4, ALK (Homo sapiens, UniProt Q9UM73); assay: KdELECT binding assay
T4 construct: purchased Eurofins DiscoverX

PIK3CG = PIK3CG (Homo sapiens, UniProt P48736); assay: KiNativ, OCI cells live cell; assay type: cell-based; settings: 2 h, labeling site ATP, peptide […]
PIK3CD = PIK3CD (Homo sapiens, UniProt O00329); assay: KiNativ, OCI cells live cell; assay type: cell-based; settings: 2 h, labeling site ATP, peptide […]
IKKb = target: T5, IKKb (Homo sapiens, UniProt O14920); assay: KiNativ, OCI cells live cell; assay type: cell-based; settings: 2 h
T5 sequence (O14920 1-756): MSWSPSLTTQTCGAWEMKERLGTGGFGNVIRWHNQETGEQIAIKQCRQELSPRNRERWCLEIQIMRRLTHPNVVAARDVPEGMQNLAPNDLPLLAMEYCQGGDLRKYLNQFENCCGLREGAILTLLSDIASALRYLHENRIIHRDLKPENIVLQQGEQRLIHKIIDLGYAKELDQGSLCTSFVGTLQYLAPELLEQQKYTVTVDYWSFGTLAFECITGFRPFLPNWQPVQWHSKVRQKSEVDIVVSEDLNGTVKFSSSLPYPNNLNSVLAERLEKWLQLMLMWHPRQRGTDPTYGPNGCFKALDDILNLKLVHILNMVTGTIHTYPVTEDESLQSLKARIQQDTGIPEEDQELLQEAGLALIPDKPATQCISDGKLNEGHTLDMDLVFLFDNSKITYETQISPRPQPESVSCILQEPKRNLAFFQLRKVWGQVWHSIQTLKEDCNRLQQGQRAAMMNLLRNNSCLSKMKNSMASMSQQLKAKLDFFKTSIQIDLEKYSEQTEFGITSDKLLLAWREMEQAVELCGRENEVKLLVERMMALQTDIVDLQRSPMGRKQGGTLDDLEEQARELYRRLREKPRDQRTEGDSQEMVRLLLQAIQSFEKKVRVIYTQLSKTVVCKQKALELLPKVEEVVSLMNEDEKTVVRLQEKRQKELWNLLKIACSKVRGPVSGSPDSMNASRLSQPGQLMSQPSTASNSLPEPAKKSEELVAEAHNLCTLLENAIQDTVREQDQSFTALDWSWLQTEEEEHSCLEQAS

CSK, sequence (P41240 whole entry): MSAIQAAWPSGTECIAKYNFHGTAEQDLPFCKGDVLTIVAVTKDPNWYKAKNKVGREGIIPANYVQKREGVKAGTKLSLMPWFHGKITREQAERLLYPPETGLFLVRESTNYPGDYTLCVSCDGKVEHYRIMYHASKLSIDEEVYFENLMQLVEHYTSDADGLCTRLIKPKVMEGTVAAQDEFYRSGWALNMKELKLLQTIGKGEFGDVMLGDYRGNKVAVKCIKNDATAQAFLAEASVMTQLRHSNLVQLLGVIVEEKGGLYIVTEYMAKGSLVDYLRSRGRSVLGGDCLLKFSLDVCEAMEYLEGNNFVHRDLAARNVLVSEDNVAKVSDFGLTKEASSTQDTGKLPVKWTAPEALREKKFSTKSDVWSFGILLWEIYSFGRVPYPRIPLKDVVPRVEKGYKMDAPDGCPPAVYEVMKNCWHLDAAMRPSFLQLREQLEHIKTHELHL

SMILES: CN1CCN(Cc2ccc(Nc3ncc(Cl)c(Nc4ccccc4S(=O)(=O)N(C)C)n3)cc2)CC1 [TP-0903]
- Kd (PLK4): < 5 nM
- Inhibition (NEK6, NEK7): -9.6%
- Inhibition (CSK; labeling site Activation Loop, peptide VSDFGLTKEASSTQDTGKLPVK): 11.9%
- Inhibition (CSK; labeling site Lys1, peptide VAVKCIK): 0.379%
- inhibition at 0.1 µM (MAST3): -0.112%
- Inhibition (KSR1, KSR2): -3.1%
- Kd (GCK [1]): 1.8 nM
- inhibition at 0.1 µM (RIPK3): 2.8%
- Inhibition (MAP3K15, MAP3K5, MAP3K6): -14.4%
- inhibition at 0.1 µM (ACK1; OCI-AML-3, 2 h, OCI cells, live cell, labeling site Activation Loop, peptide KVPFAWCAPESLK, read-out: Inhibition): 81.6%
- inhibition at 0.1 µM (ACK1; OCI-AML-3, 2 h, OCI cells, live cell, labeling site Lys1, peptide TVSVAVKCLKPDVLSQPEAMDDFIR, read-out: Inhibition): 86.9%
- inhibition at 0.1 µM (ACK1; OCI-AML-3, OCI-AML3 cells, 100 nM, read-out: Inhibition of ACK1): 87%
- inhibition at 0.1 µM (GCK [2]; OCI-AML-3, 2 h, OCI cells, live cell, labeling site Lys1, peptide DTVTSELAAVKIVK, read-out: Inhibition): 45.6%
- inhibition at 0.1 µM (GCK [2]; OCI-AML-3, 2 h, OCI cells, live cell, labeling site Lys2, peptide DIKGANLLLTLQGDVK, read-out: Inhibition): 42.3%
- inhibition at 0.1 µM (GCK [2]; OCI-AML-3, OCI-AML3 cells, 100 nM, read-out: Inhibition of GCK): 46%
- inhibition at 0.1 µM (MAP3K3): 20%
- IC50 (GCK [3]): 2.5 nM
- Kd (TYK2): < 5 nM
- Kd (ALK): < 5 nM
- inhibition at 0.1 µM (PIK3CG): 5.5%
- inhibition at 0.1 µM (PIK3CD): -5.6%
- inhibition at 0.1 µM (IKKb; labeling site Lys1, peptide WHNQETGEQIAIKQCR): -16%
- inhibition at 0.1 µM (IKKb; labeling site Lys2, peptide DLKPENIVLQQGEQR): 14.6%
